Measured values taken from patent publication US5646316A, “Bile acid inhibitors of metalloproteinase enzymes” (OsteoArthritis Sciences, Inc., priority 1995, dated 1997).
Like-named read-outs stand apart in the source and are kept apart here.

What was measured:
[1] = system: chondrocytes; assay: Chondrocyte Cell Culture Matrix Breakdown Assay (35S release, rhIL-1α stimulated); assay type: cell-based, calf; conditions: Bos taurus, Chondrocyte, read-out: percent inhibition, Cell Culture
Experimental: A cell culture assay was used to measure the ability of compounds to slow the degradation of the extracellular matrix by a metalloproteinase. This assay measured the amount ^35 S released from chondrocytes grown in a media with ^35 S labeled sodium sulfate. The cell culture assay was carried out as follows:
Two or three 1 to 3 week old calf joints were obtained from an abattoir. The proximal end of the shank was at about 4-5" long to facilitate immobilization in the holder. The joint was kept cool and transported on ice. The exterior of the intact joints was washed well with a suitable anti-microbial soap, rinsed clean with warm water, rinsed in betadine and then finally rinsed with 70% ethanol. Up to this point all steps were done in a manner to ensure that the joint was kept as clean as possible. All subsequent steps were performed in a sterile field (i.e., in a Edgeguard laminar flow tissue culture hood). The joint was immobilized and the synovial fluid was aspirated with a needle and syringe. The joint was then cut open to expose the articular cartilage using a #21 scalpel. Using locking hemostats, forceps and a #15 scalpel, the cartilage was excised in full thickness pieces. Care was taken not to cut too deep because bleeding would have occurred if the subchondral bone, was penetrated. The cartilage pieces were placed into a 50 mL centrifuge tube containing 25 mL of Delbecco's phosphate buffered saline (D-PBS) supplemented with 1% antibiotic solution (penicillin, streptomycin and fungizone; GIBCO/BRL). The slices from each joint were then placed into separate 50 mL centrifuge tubes. The D-PBS was decanted and replaced with 25 mL of fresh D-PBS supplemented with antibiotics and subsequently agitated gently.
The cartilage pieces were transferred to a fresh 50 mL centrifuge tube and rinsed once more with 25 mL of D-PBS minus antibiotics. An enzymatic digestion solution containing 1 mg/mL of hyaluronidase in serum-free 1:1 DMEM/Ham's F-12 (DMEM/F12) was prepared. This solution was filter sterilized with […] Milex--GV filter and kept on ice until ready to use. The cartilage pieces were digested with approximately 5 mL of hyaluronidase solution per joint for 2×15 minutes at 37° C. in the 50 mL centrifuge tube with gentle agitation at the 15 minute mark. This procedure removed residual hyaluronic acid from the surface of the chips. The enzymatic digestion solution was then aspirated and the cartilage pieces were rinsed with 25 mL of D-PBS.
A second enzymatic digestion solution containing 2.5 mg trypsin and 2 mg collagenase P per mL serum-free DMEM/F12 was prepared. This solution was also filter sterilized with a […] Millex--GV filter and kept on ice until ready to use. The cartilage pieces were digested with approximately 5 mL of trypsin: collagenase solution per joint for 2×15 minutes at 37° C. in the 50 mL centrifuge tube with gentle agitation at the 15 minute mark. This procedure removed the synovial fibroblasts and any adherent connective tissue from the surface of the chips. The enzymatic digestion solution was then carefully removed and saved and the cartilage pieces were rinsed with 25 mL of D-PBS.
A third enzymatic solution containing 2 mgs of collagenase P (BMB) per mL serum-free DMEM/F12 was prepared. This solution was filter sterilized with a […] Millex--GV filter and kept on ice until ready to use. The pre-digested cartilage pieces were finally digested with approximately 20 mL of enzymatic digestion solution per joint for 5-6 hours at 37° C. in a Bellco stirring digestion flask, at which point the cartilage was fully digested away.
The enzymes in the synovial fibroblast and chondrocyte digest were neutralized by addition of an equal volume of DMEM/F12 supplemented with 5% fetal bovine serum. Fibroblasts were plated in DMEM at a cellular density of 6.6×10^3 cells per cm^2. […]

[2] = biological target: stromelysin (Homo sapiens, UniProt P08254); assay: Assay of Stromelysin Inhibition Activity (fluorogenic substrate hydrolysis); assay type: biochemical; conditions: for inhibition at 10 µM: read-out: percent inhibition of stromelysin
Experimental: (§1) Stromelysin was first activated by trypsin. This was done by preparing a reaction mixture in B-150 (B-150 consists of 150 mM NaCl, 20 mM Tris at pH 7.8 and 0.02% sodium azide) containing a final concentration of 4 μg/mL trypsin, 1.48 μg/mL of stromelysin, and 3.15 mM CaCl2. The reaction was incubated for 30 minutes at 37° C. and then quenched by adding soybean trypsin inhibitor to a final concentration of 43.6 μg/mL. ZnCl2 was added to the reaction mixture for a total concentration of 0.24 μM.
(§2) Following preparation of the solution of activated stromelysin, assay solutions were prepared for each inhibitor being tested. A control was also prepared. First, […] of activated stromelysin (about 45 μL from the solution of activated stromelysin) were aliquotted per assay tube. A 2.5 mM solution in 100% dimethyl sulfoxide (DMSO) was prepared for each inhibitor being tested and 1 μL from each inhibitor solution was added to one of the assay tubes. In addition, 1 μL of 100% DMSO was added to the control assay tube. All assay tubes were then pre-incubated for 5 minutes.
(§3) 5 μL of a previously prepared 50 μM solution of substrate in 15% DMSO were added to each assay tube. The substrate was a methoxycumarin developed by Knight et al. FEBS Lett. 296:263-66 (1992). The tubes were then incubated for 60 minutes, at which time the reaction was stopped with the addition of 750 μL of 0.1M NaAc pH 4.0 buffer.
(§4) Substrate hydrolysis was assessed by fluorescence using a slit width of 10:10, excitation at 328 nm and emission at 393 nm. The results of these assays are listed in Table I as percent inhibition at 10 μM of the bile acid provided compound tested or as the IC50.

[3] = system: collagenase; assay: Assay of Collagenase Inhibition Activity; assay type: biochemical; conditions: at 10 μM of compound; 45 minutes at 37° C.
Experimental: as §1, §2, §3, §4
The assay procedure for collagenase was the same as described in Example 13 for stromelysin except that the trypsin activation was performed for 45 minutes. In addition, the incubation of the assay tubes at 37° C. was only for 45 minutes, and the final enzyme concentration is 6 nm. The results of these assays are provided in Table I as percent inhibition at 10 μM of the compound tested.

[4] = system: bovine cartilage explants; assay: Bovine Cartilage Explant Assay (35S-GAG release, rhIL-1α stimulated; tissue culture); assay type: cell-based; conditions: Bos taurus; at 50 μM; rhIL-1α 5 ng/mL; 3-4 days; read-out: percent inhibition of extracellular matrix damage, Tissue Culture
Excerpt: A tissue culture assay was used to measure the ability of the compounds of the present invention to slow the degradation of the extracellular matrix by metalloproteinases. This assay measured the amount of ^35 S-glycosaminoglycan (^35 S-GAG) released from labeled bovine cartilage explants.
Knee joints from a 1 to 3 week old calf were obtained immediately after sacrifice from the Abattoir and then transported on ice. The intact joints were washed well with tap water and soaked in 50% (v/v) Povidine iodine solution, obtained from Burre National, Inc., Baltimore, Md. All subsequent steps were performed in a laminar flow tissue culture hood using standard sterile technique. The joint was immobilized in a shank holder and the joint capsule was cut open to expose the articular cartilage. Cartilage explant plugs, approximately 15 mg wet weight, were removed from the flat articulating surfaces in the lower-most region of the knee joint using a sterile steel cork-borer and collected in a 250 mL roller bottle containing about 100 mL fresh Delbecco's minimum essential medium (DMEM), obtained from Gibco BRC, Life Technologies, Gaithersburg, Md., containing 4.5 g/1 (D)-glucose and (L)-glutamine, without sodium pyruvate. The fresh media also contained enough Hepes buffer and sodium bicarbonate such that the pH was about 7.4. The media was then further supplemented just before use with 100 units Penicillin, 100 μg Streptomycin, and 50 μg (L)-ascorbic acid per mL of medium.
Once collected, the explant plugs were washed four times with 50 mL fresh DMEM. The plugs were then placed in the incubator for a minimum of 1 hour to equilibrate, before proceeding to make disks from the articulating surface of each plug. A 1 mm thick disk was sliced from individual plugs from the end that was the articulating surface of the joint. The plug was held steady in the sterile template (4 mm diameter×1.5 mm deep) using sterile forceps. A scalpel blade was used to carefully slice off the disk. Only the superficial articulating surface responded well in culture.
Individual disks obtained were transferred to a tissue culture flask containing about 100 mL fresh media. The flask containing the disks was placed in an incubator at 37° C. (with 5% CO2, 95% air) and allowed to equilibrate overnight and at least one additional day before labeling. When ready to label, the old media was replaced with 50 mL fresh media containing about 500 μCi ^35 S-Sodium Sulfate. The plugs were labeled in bulk for about 48 hours. The next morning, the "hot" media was removed and replaced with fresh "cold" media. The disks were again allowed to equilibrate overnight before being used for actual experiments.
The media in which the disks were stored was changed immediately prior to performing the assay. The disks were then returned to the incubator until the test media and the two control media had been prepared. The test media consisted of a bile acid or bile acid derivative (50 μM) being tested for its ability to inhibit extracellular matrix degradation and concomitant recombinant human Interleukin rhIL-1α (5 ng/mL) in fresh DMEM solution. The control media were identical to the test media, except that the first control media lacked rhIL-1α and the second control media lacked an inhibitor, i.e. a bile acid or bile acid derivative. 250 μL of each of the test and control media were transferred to separate 96-well TC plates. Flamed forceps were used to transfer a disk from the incubator to each 96-well TC plates that had been filled with either the test media or one of the two control media.
The TC plates were then placed in the incubator and cultured for 3-4 days (initial incubation with rhIL-1α alpha takes at least 3 days to stimulate endogenous metalloproteinases). A 50 μL aliquot of media from each TC plate was saved and counted. The rest of the media was removed with a suction device.
The cartilage disks from each TC plate were also saved for counting. […]

[5] = at 50 μM, rhIL-1α 1 ng/ml, 22-24 hours

Sequence of stromelysin (P08254 100-477): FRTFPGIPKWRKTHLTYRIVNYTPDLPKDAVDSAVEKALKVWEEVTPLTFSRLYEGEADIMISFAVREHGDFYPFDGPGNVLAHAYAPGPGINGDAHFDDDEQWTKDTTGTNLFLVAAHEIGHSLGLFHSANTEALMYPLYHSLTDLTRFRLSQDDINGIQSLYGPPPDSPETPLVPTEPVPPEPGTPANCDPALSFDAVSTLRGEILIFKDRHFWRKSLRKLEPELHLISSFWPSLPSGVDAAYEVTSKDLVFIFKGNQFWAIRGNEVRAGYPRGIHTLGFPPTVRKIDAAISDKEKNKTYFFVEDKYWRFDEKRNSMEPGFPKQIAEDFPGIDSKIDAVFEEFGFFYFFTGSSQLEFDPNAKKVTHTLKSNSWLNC

`C[C@H](CCC(=O)O)[C@H]1CC[C@H]2[C@@H]3CC[C@@H]4C[C@H](O)CC[C@]4(C)[C@H]3C[C@H](O)[C@]12C` [Compound 2, deoxycholic acid, reference compound] gave an inhibition at 50 µM [1, 5] of -14% and an inhibition at 10 µM [2] of 23%.
Molecule `C[C@H](CCC(=O)O)[C@H]1CC[C@H]2[C@@H]3[C@@H](O)C[C@@H]4C[C@H](O)CC[C@]4(C)[C@H]3CC[C@]12C` [Compound 3, ursodeoxycholic acid, reference compound] has an inhibition at 50 µM [1, 5] of 5% and an inhibition at 10 µM ([2]; at 10 μM of compound) of 21%.
Work on `C[C@H](CCC(=O)O)[C@H]1CC[C@H]2[C@@H]3C[C@H](O)[C@@H]4C[C@H](O)CC[C@]4(C)[C@H]3CC[C@]12C` [Compound 4, hyodeoxycholic acid, reference compound] yielded an inhibition at 50 µM [1, 5] of 7% and an inhibition at 10 µM ([2]; at 10 μM of compound) of 18%.
With `C[C@H](CCC(=O)NCCC[N+](C)(C)CC(O)CS(=O)(=O)[O-])[C@H]1CC[C@H]2[C@@H]3[C@H](O)C[C@@H]4C[C@H](O)CC[C@]4(C)[C@H]3C[C@H](O)[C@]12C` (stereo partly drawn) [Compound 5, 3-[(3-cholamidopropyl)dimethylammonio]-2-hydroxy-1-propanesulfonate, reference compound] the inhibition at 50 µM [1] was 35% and the inhibition at 10 µM [2] was 15%.
In the case of `C[C@H](CCC(=O)O)[C@H]1CC[C@H]2[C@@H]3[C@H](O)C[C@@H]4C[C@H](O)CC[C@]4(C)[C@H]3CC[C@]12C` [Compound 6, Chenodeoxycholic acid, reference compound], the “percent inhibition of collagenase” value [3] is reported as 6% and the inhibition at 50 µM [4] is reported as 23%.
In the case of `C[C@H](CCC(=O)NO)[C@H]1CC[C@H]2[C@@H]3[C@H](O)C[C@@H]4C[C@H](O)CC[C@]4(C)[C@H]3CC[C@]12C` [Compound 14, Chenodeoxycholyhydroxamic Acid], the “percent inhibition of collagenase” value [3] is reported as 19% and the inhibition at 50 µM [1, 5] is reported as 77%.
For `C[C@H](CCC(=O)N[C@H](Cc1ccccc1)C(=O)NO)[C@H]1CC[C@H]2[C@@H]3CC[C@@H]4C[C@H](O)CC[C@]4(C)[C@H]3CC[C@]12C` [Compound 22, Lithocholyl-(D)-Phenylalanine Hydroxamic Acid], the inhibition at 50 µM [1, 5] was 5% and the IC50 ([2]; 60 minutes incubation) was 1200 nM.
`C[C@H](CCC(=O)NO)[C@H]1CC[C@H]2[C@@H]3[C@H](O)C[C@@H]4C[C@H](O)CC[C@]4(C)[C@H]3C[C@H](O)[C@]12C` [Compound 23, Cholylhydroxamic Acid] showed an inhibition at 50 µM [1, 5] of -20% and an inhibition at 10 µM ([2]; at 10 μM of compound) of 12%.
In the case of `C[C@H](CCC(=O)N[C@@H](CCc1ccccc1)C(=O)NO)[C@H]1CC[C@H]2[C@@H]3CC[C@@H]4C[C@H](O)CC[C@]4(C)[C@H]3CC[C@]12C` [Compound 27, Lithocholyl-(L)-homophenylalanine Hydroxamic Acid], the inhibition at 10 µM ([2]; at 10 μM of compound) is reported as 90%.
`C[C@H](CCC(=O)N[C@H](CCc1ccccc1)C(=O)NO)[C@H]1CC[C@H]2[C@@H]3CC[C@@H]4C[C@H](O)CC[C@]4(C)[C@H]3CC[C@]12C` [Compound 28, Lithocholyl-(D)-homophenylalanine Hydroxamic Acid] showed an inhibition at 10 µM ([2]; at 10 μM of compound) of 92%.
